Patent US20220334133A1, “METHODS AND COMPOUNDS MODIFYING MITOCHONDRIAL FUNCTION” (The Board of Trusteesof the Leland Stanford Junior …, priority 2019, published 2022)
Counter-ions that a name gives are not always drawn.

Tested on: Miro1
Assay: High-throughput screening assay for Miro1 reduction after FCCP (immunostaining, 384-well)
Assay type: cell-based, human
Details: Table 1A hits; 10 μM tested; PD patient fibroblasts, following FCCP treatment (20 μM, 14 hr)
Method: Human dermal primary fibroblasts isolated from a PD patient (ND33424) and a healthy control (ND36091) were cultured in cell media DMEM (ThermoFisher, 11995-065) supplemented with 10% fetal bovine serum (Gemini Bio-Products, 900-108, heat-inactivated), 1×Anti Anti (ThermoFisher, 15240096), and 1×GlutaMax (ThermoFisher, 35050061) maintained in a 37° C., 5% CO2 incubator with humidified atmosphere.
Fibroblast cells were plated onto clear-bottomed/black-walled 384-well plates (EK-30091, E&K Scientific, Santa Clara, Calif.) at 2000 cells/well with Matrix Wellmate dispenser (Thermo Scientific, Sunnyvale, Calif.) and plates were incubated at 37° C., 5% CO2 for 24 hrs. Next, chemical library compounds at defined concentrations, were added using fully automated liquid handling system Caliper Life Sciences Staccato system with a Twister II robot and a Sciclone ALH3000 (Caliper Life Sciences, Alameda, Calif. USA) integrated with a V&P Scientific pin tool and plates were incubated at 37° C./5% CO2 for 10 hrs. Then, 20 μM of FCCP (Carbonyl cyanide 4-(trifluoromethoxy)phenylhydrazone, Sigma-Aldrich, C2920) in cell media was added to defined wells and plates were incubated at 37° C., 5% CO2 for another 14 hr. Cells were fixed with ice-cold 90% methanol (Fisher, 482332) for 20 min at −20° C., incubated with blocking buffer (10% Normal Goat Serum (NGS) (ThermoFisher, 50062Z), 0.5% BSA (ThermoFisher, BP1600), 0.2% Triton X-100 (ThermoFisher, T8787) at room temperature (RT) for 15 min, and incubated with anti-Miro1 solution (Sigma-Aldrich, HPA0101687) at 1:100 in blocking buffer O/N at 4° C. Samples were washed with lx PBS (ThermoFisher, 10010-049) using a Plate Washer multivalve (Bio-Tek, ELx405UV), incubated with goat anti-Rabbit IgG (H+L) Cross-Adsorbed, Alexa Fluor 488 (ThermoFisher, A11008) at 1:500 in blocking buffer at 25° C. for 2 hrs and washed again with lx PBS, finally 1.0 μg/mL DAPI (ThermoFisher, D1306) in 1×PBS was added and plates were sealed using PlateLoc (Velocity11, 01867.001). All liquids were dispensed using the Multidrop 384 (Titertek, 5840200) unless otherwise stated. Fluorescent signals in plates were automatically imaged with ImageXpress Micro (Molecular Devices, IXMicro) and data were analyzed with MetaXpress Analysis (Molecular Devices). The percent of Miro1 reduction was calculated as % Positive Cells for Miro1/Median=[(Positive Cells Miro Integrated Intensity/All Nuclear Miro Integrated Intensity)−Plate Median of this same calculation (Median % Positive Miro/Nuclear Miro in Plate Data)]/[Plate Median of this same calculation (Median % Positive Miro/Nuclear Miro in Plate Data)]. Positive cells are cells having Miro1 immunostaining. […] Negative value indicates a reduction in Miro. Positive value indicates an increase in Miro. The screening and data analysis were carried out together with Stanford University High-Throughput Bioscience Centers (HTBC).
Drugs from the NIH Clinical collection library were screened at a defined 10 μM concentration with 4 biological repeats for each drug (377 compounds). […] These compounds are ranked in the order of the degree of Miro1 reduction (Table 1A). 12 small molecules that reduced Miro1 protein levels in 3 out of 4 biological repeats were ranked in order of degree of Miro1 reduction. […] These hits were ranked in order of the degree of Miro1 reduction, with the six compounds found to reduce Miro1 protein levels by 20% or more shown (Table 1A). Moreover, an additional 12 small molecules reduced Miro1 protein levels in 3 out of 4 biological repeats (Table 1B). We next screened the Biomol FDA library with 5-fold doses (1.25-2.5-5-10-20 μM) and in duplicate. […] We ranked these 3 hits in the order of the degree of Miro1 reduction (Table 1A). Taken together, we identified 14 actives (2.5% primary hit rate) and 12 potential actives.

Structure (SMILES) | % Miro1 decrease in screen
Cn1nnc2c(C(N)=O)ncn2c1=O [Temozolomide] | A (Reduction of Miro levels by >30%)
COc1ccc(/C=C/C(=O)Nc2ccccc2C(=O)O)cc1OC [Tranilast] | B (Reduction of Miro levels by >20% and less than 30%)
COC(=O)C1=C(C)NC(C)=C(C(=O)OC2CCCN(Cc3ccccc3)C2)C1c1cccc([N+](=O)[O-])c1 (stereo not drawn) [Benidipine HCl] | A (Reduction of Miro levels by >30%)
CN(C)CCC[C@@]1(c2ccc(F)cc2)OCc2cc(C#N)ccc21 [Escitalopram Oxalate] | A (Reduction of Miro levels by >30%)
C[N+]1(C)CCC(OC(=O)C(O)(c2ccccc2)C2CCCC2)C1 (stereo not drawn) [Glycopyrrolate] | B (Reduction of Miro levels by >20% and less than 30%)
CNC(=O)Oc1ccc2c(c1)[C@]1(C)CCN(C)[C@@H]1N2C [Physostigmine] | B (Reduction of Miro levels by >20% and less than 30%)

Same assay, conditions: Table 1B additional small molecules (3 out of 4 biological repeats); 10 μM tested; following FCCP treatment

Structure (SMILES) | % Miro1 decrease in screen
CC(C(=O)O)c1ccc(CC2CCCC2=O)cc1 (stereo not drawn) [Loxoprofen] | B (Reduction of Miro levels by >20% and less than 30%)
C[C@H]1COc2c(C3(N)CC3)c(F)cc3c(=O)c(C(=O)O)cn1c23 [Pazufloxacin] | B (Reduction of Miro levels by >20% and less than 30%)
COc1ccc2[nH]c([S+]([O-])Cc3ncc(C)c(OC)c3C)nc2c1 (stereo not drawn) [Omeprazole] | C (Reduction of Miro by >10% and less than 20%)
CC(C(=O)O)c1ccc(-c2ccccc2)c(F)c1 (stereo not drawn) [Flurbiprofen] | B (Reduction of Miro levels by >20% and less than 30%)

Tested on: Miro1
Assay: Hit confirmation: immunocytochemistry and confocal microscopy of Miro1 in sporadic PD fibroblasts
Assay type: cell-based, human
Details: DMSO instead of FCCP, with compound at highest screening concentration; sporadic PD line; at least 4 biological replicates
Method: Fibroblast cells were plated in 6-well plates (VWR, 10861-554) on coverslips (Fisher scientific, 22-293232) at 400.000 cells/well and plates were incubated at 37° C., 5% CO2 for 24 hrs. Next, newly ordered chemical compounds dissolved in DMSO were added at defined concentrations and plates were incubated at 37° C./5% CO2 for 10 hrs. Then, FCCP (final concentration of 20 μM, Carbonyl cyanide 4-(trifluoromethoxy)phenylhydrazone, Sigma-Aldrich, C2920) in cell media was added to defined wells and plates were incubated at 37° C., 5% CO2 for another 14 hrs. Cells were fixed with ice-cold 90% methanol (Fisher, 482332) for 20 min at −20° C., incubated with blocking buffer (10% Normal Goat Serum (NGS) (ThermoFisher, 50062Z), 0.5% BSA (ThermoFisher, BP1600), 0.2% Triton X-100 (ThermoFisher, T8787)) at 25° C. for 15 min and incubated with anti-Miro1 (Sigma-Aldrich, HPA0101687) at 1:100 in blocking buffer O/N at 4° C. Samples were washed three times with 1×PBS (ThermoFisher, 10010-049), incubated with goat anti-Rabbit IgG (H+L) Cross-Adsorbed, Alexa Fluor 488 (ThermoFisher, A11008) at 1:500 in blocking buffer at 25° C. for 2 hrs and washed again three times with lx PBS, and finally samples were mounted with ProLong™ Glass Antifade Mountant with NucBlue™ Stain (hard-setting, Thermofisher, P36983) on glass slides and allowed to cure O/N. Samples were imaged at 25° C. with a 20×/N.A.0.60 oil Plan-Apochromat objective on a Leica SPE laser scanning confocal microscope (JH Technologies), with identical imaging parameters among different genotypes. Images were processed with ImageJ (Ver. 1.48, NIH) using the Intensity Ratio Nuclei Cytoplasm Tool (http://dev.mri.cnrs.fr/projects/imagej-macros/wiki/Intensity_Ratio_Nuclei_Cytoplasm_Tool), and average cytoplasmic intensity (the average intensity in the cytoplasm area) was plotted.
To reduce experimental bias such as the freshness the compounds, experimental reagents, and imaging devices, the 14 hits identified in the high-throughput screening were verified individually . The 14 compounds were tested at their highest screening concentrations with at least 4 biological replicates, using the same sporadic PD line. […] Samples were imaged with identical settings under the confocal microscope, and negative controls without primary antibodies yielded no signals under the imaging settings.

Structure (SMILES) | Basal Miro1 levels (without mitochondrial depolarization)
CC[C@H](C)C(=O)O[C@H]1C[C@H](O)C=C2C=C[C@H](C)[C@H](CC[C@@H](O)C[C@@H](O)CC(=O)O)[C@H]21 [Pravastatin Sodium] | already reduced Miro1 protein at baseline
COC(=O)C1=C(C)NC(C)=C(C(=O)OC2CCCN(Cc3ccccc3)C2)C1c1cccc([N+](=O)[O-])c1 (stereo not drawn) [Benidipine HCl] | no impact on basal Miro1 levels
CN(C)CCC[C@@]1(c2ccc(F)cc2)OCc2cc(C#N)ccc21 [Escitalopram Oxalate] | already reduced Miro1 protein at baseline
CN(CCCN1c2ccccc2CCc2ccccc21)CC(=O)c1ccc(Cl)cc1 [Lofepramine] | already reduced Miro1 protein at baseline

Tested on: Fibroblast cells
Assay: Toxicity observed in hit confirmation
Assay type: cell-based, human
Details: highest screening concentration, sporadic PD fibroblast line
Method: Fibroblast cells were plated in 6-well plates (VWR, 10861-554) on coverslips (Fisher scientific, 22-293232) at 400.000 cells/well and plates were incubated at 37° C., 5% CO2 for 24 hrs. Next, newly ordered chemical compounds dissolved in DMSO were added at defined concentrations and plates were incubated at 37° C./5% CO2 for 10 hrs. Then, FCCP (final concentration of 20 μM, Carbonyl cyanide 4-(trifluoromethoxy)phenylhydrazone, Sigma-Aldrich, C2920) in cell media was added to defined wells and plates were incubated at 37° C., 5% CO2 for another 14 hrs. Cells were fixed with ice-cold 90% methanol (Fisher, 482332) for 20 min at −20° C., incubated with blocking buffer (10% Normal Goat Serum (NGS) (ThermoFisher, 50062Z), 0.5% BSA (ThermoFisher, BP1600), 0.2% Triton X-100 (ThermoFisher, T8787)) at 25° C. for 15 min and incubated with anti-Miro1 (Sigma-Aldrich, HPA0101687) at 1:100 in blocking buffer O/N at 4° C. […]

Structure (SMILES) | Toxicity
O=C(O)CCC(=O)c1ccc(-c2ccccc2)cc1 [Fenbufen] | appeared toxic
